Laboratory results from patent US5270334A, “4-methoxy-5-methyl-pyran-3-ol natural products and derivatives thereof” (E. R. Squibb & Sons, Inc., priority 1992, dated 1993).

What was measured:
[1] = biological target: T1, lanosterol demethylase of Candida albicans (Candida albicans, UniProt P10613); experiment: inhibition of lanosterol demethylase, radiolabeled metabolic assay (14C-acetate, lanosterol accumulation); format: cell-based; conditions: Candida albicans SC5314, 14C-acetate, 30°
T1 construct: 14C-acetate sterol labelling, TLC
T1 sequence (P10613 whole entry): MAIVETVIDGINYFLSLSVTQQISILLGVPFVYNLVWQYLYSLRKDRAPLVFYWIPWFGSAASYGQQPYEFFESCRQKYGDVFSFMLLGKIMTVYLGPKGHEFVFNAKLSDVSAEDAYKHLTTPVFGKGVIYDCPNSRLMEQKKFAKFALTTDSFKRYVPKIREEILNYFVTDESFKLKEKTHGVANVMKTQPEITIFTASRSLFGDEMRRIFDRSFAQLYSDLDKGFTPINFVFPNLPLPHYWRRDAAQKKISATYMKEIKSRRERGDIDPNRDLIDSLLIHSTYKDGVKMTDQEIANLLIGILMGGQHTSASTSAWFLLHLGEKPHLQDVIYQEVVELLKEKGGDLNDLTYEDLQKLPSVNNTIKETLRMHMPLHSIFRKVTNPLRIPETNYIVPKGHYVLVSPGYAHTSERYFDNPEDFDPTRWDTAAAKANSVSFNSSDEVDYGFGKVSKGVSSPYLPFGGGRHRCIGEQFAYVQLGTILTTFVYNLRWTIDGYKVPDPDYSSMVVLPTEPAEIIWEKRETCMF
Protocol: (§1) The inhibition of lanosterol demethylase was determined by two methods: the spectrophotometric carbon monoxide binding assay of Omura and Sato (J. Biol. Chem. 239:2370-2378, 1964) and by a radiolabeled metabolic assay.
The ability of scopularin and its alcohol to inhibit the lanosterol demethylase of Candida albicans can also be visualized by a metabolic assay. Candida albicans, SC5314, was grown overnight at 30° with shaking in the same medium as that used above. Cells were harvested by centrifugation and resuspended in water to give an optical density of 0.3 at 660 nm. 750 μl of this cell suspension, 300 μl of a medium containing 0.35 g Difco yeast nitrogen base without amino acids, 1 g glucose and distilled water to 10 ml, 100 μl of test material and distilled water were combined to give a final volume of 1.425 ml. This was incubated for 15 minutes at 30° C. with shaking, then 3 μCi ^14 C-acetate was added and continued to incubate for 1 hour. Cells were harvested by centrifugation and extracted with 2×0.5 ml methanol; centrifuged, decanted supernate and repeated the extraction with […] methanol-benzene (1:1). Centrifuged, decanted; combined supernates, dried and resuspended in 100 μl chloroform-methanol (1:1). The aliquots were spotted onto silica gel 60 (Merck) plates and developed chromatographically in a solvent containing dichloromethane-acetone (60:1). […]

lanosterol demethylase = biological target: T2, lanosterol demethylase (Candida albicans, UniProt P10613); experiment: inhibition of lanosterol demethylase, spectrophotometric carbon monoxide binding assay; conditions: Candida albicans SGY677; read-out: concentration which gives 50% inhibition of carbon monoxide binding
T2 construct: endogenous in cells; host or cells: Candida albicans SGY677
T2 sequence (P10613 whole entry): as above
Protocol: as §1
Cells of Candida albicans, SGY677, were grown overnight without shaking at 30° C. in a medium consisting of yeast extract 1%, peptone 2%, glucose 2% and distilled water. Cells were harvested by centrifugation and resuspended in 0.65M mannitol to an optical density at 600 nm of 2.5. At this density 1 ml of cells was equal to 6.7 mg constant dry weight (105° C. for 18 hours).
Scopularin and its alcohol derivative of Example 4 were added to the enzyme and the inhibition of carbon monoxide binding determined over a range of inhibitor concentrations.

[2] = test system: cytochrome P450 enzymes, such as lanosterol demethylase; experiment: inhibition of cytochrome P450 enzymes (general statement); format: biochemical; conditions: in words
yeasts and fungi = experiment: activity against a variety of yeasts and fungi (general statement); format: cell-based; conditions: in words

| Structure (SMILES) | concentration causing accumulation of lanosterol, consistent with inhibition of lanosterol demethylase [1] | IC50 (lanosterol demethylase) [µM] | inhibition of cytochrome P450 enzymes, such as lanosterol demethylase [2] | activity against a variety of yeasts and fungi (yeasts and fungi) |
| --- | --- | --- | --- | --- |
| CCC/C=C/C=C/C=C(\C)[C@H]1OC[C@@H](C)[C@@H](OC)[C@@H]1O (relative stereo) [Example 4] | 1.4×10^-6 | 14 | inhibitor |  |
| C/C=C/C=C/C=C(\C)[C@@H]1OC[C@H](C)[C@H](OC)[C@H]1OC(=O)CN[C@@H]1O[C@H](CO)[C@@H](O)[C@H](O)[C@H]1O [Ic] |  |  | inhibit | has activity |
